Values belong to the compound of their own block, whether it stands above or below them. Activity calls are given as the source filed them. The rule behind the calls is not given here.
Key:
[1] = tested on: RAW264.7; experiment: Antiinflammatory activity in mouse RAW264.7 cells assessed as inhibition of LPS-induced PGE2 production pretreated for 1 hr followed by LPS addition measured after 24 hrs; type: functional, cell-based
[2] = tested on: RAW264.7; experiment: Cytotoxicity against mouse RAW264.7 cells assessed as reduction in cell viability up to 200 uM measured after 24 hrs in presence of LPS by MTT assay; type: cell-based; details: raw264.7, 24 h
[3] = tested on: RAW264.7; experiment: Cytotoxicity against mouse RAW264.7 cells assessed as reduction in cell viability up to 200 uM measured after 24 hrs in absence of LPS by MTT assay; type: cell-based; details: raw264.7, 24 h
[4] = tested on: RAW264.7; experiment: Antiinflammatory activity in mouse RAW264.7 cells assessed as inhibition of LPS-induced nitric oxide production measured after 24 hrs by Griess assay; type: functional, cell-based; details: RAW264.7, 24 h
[5] = tested on: RAW264.7; experiment: Inhibition of LPS-induced c-JUN expression in mouse RAW264.7 cells at 50 uM pretreated for 1 hr followed by LPS-stimulation measured up to 30 mins by Western blot analysis; type: functional, cell-based
[6] = target: Tyrosine-protein kinase JAK1 (Mus musculus) (UniProt P52332); experiment: Inhibition of JAK1 in LPS-stimulated mouse RAW264.7 cells assessed as reduction in STAT3 phosphorylation at […] residue pretreated for 1 hr followed by LPS-stimulation by Western blot analysis; type: cell-based
Sequence of Tyrosine-protein kinase JAK1 (Mus musculus) (P52332 whole entry): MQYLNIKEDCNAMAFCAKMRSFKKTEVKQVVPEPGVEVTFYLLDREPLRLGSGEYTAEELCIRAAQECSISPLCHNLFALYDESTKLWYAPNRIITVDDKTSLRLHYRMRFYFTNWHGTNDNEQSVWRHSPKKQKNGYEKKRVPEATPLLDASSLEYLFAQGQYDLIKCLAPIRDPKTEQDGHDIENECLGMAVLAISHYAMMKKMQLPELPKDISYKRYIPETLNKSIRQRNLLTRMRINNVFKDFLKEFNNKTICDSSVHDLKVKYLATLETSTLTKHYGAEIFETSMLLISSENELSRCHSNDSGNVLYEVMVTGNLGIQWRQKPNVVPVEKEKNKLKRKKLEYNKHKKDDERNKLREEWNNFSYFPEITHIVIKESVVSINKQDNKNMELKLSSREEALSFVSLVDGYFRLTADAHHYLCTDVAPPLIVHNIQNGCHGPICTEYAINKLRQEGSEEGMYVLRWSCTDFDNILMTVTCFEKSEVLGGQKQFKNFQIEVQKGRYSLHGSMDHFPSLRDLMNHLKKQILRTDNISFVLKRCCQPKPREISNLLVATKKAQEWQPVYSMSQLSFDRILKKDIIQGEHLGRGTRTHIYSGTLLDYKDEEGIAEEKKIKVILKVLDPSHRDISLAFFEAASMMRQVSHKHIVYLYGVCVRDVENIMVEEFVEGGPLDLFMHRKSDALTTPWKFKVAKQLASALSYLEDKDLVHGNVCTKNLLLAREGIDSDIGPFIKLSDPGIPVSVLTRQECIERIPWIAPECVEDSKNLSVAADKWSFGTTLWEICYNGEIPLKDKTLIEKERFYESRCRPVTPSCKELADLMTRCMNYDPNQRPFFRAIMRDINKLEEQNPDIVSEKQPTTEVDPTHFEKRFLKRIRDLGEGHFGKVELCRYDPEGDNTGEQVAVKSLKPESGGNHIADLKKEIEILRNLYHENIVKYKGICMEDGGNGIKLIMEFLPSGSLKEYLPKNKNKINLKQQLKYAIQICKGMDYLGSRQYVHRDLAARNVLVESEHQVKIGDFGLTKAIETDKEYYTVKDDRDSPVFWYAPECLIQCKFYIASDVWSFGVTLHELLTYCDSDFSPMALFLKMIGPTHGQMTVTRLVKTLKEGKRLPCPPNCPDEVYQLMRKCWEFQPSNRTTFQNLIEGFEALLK

[7] = target: MAP kinase p38 (Mus musculus) (UniProt P47811+O08911+Q9WUI1+Q9Z1B7); experiment: Inhibition of LPS-induced p38 phosphorylation in mouse RAW264.7 cells at 50 uM pretreated for 1 hr followed by LPS-stimulation measured up to 30 mins by Western blot analysis; type: cell-based
[8] = tested on: RAW264.7; experiment: Inhibition of LPS-induced JNK phosphorylation in mouse RAW264.7 cells at 50 uM pretreated for 1 hr followed by LPS-stimulation measured up to 30 mins by Western blot analysis; type: cell-based
[9] = tested on: RAW264.7; experiment: Antiinflammatory activity in mouse RAW264.7 cells assessed as inhibition of LPS-stimulated iNOS expression at 12.5 to 50 uM pretreated for 1 hr followed by LPS-stimulation measured after 12 hrs by Western blot analysis; type: functional, cell-based
[10] = tested on: RAW264.7; experiment: Inhibition of NFKappaB (unknown origin) expressed in LPS-stimulated mouse RAW264.7 cells by luciferase reporter gene assay; type: cell-based; details: Homo sapiens
[11] = tested on: RAW264.7; experiment: Antiinflammatory activity in mouse RAW264.7 cells assessed as inhibition of LPS-stimulated COX2 expression at 12.5 to 50 uM pretreated for 1 hr followed by LPS-stimulation measured after 12 hrs by Western blot analysis; type: functional, cell-based
[12] = tested on: RAW264.7; experiment: Inhibition of LPS-induced ERK phosphorylation in mouse RAW264.7 cells at 50 uM pretreated for 1 hr followed by LPS-stimulation measured up to 30 mins by Western blot analysis; type: cell-based
[13] = tested on: RAW264.7; experiment: Antiinflammatory activity in mouse RAW264.7 cells assessed as inhibition of LPS-stimulated IL-6 production pretreated for 1 hr followed by LPS addition measured after 24 hrs by enzyme immunoassay; type: functional, cell-based
[14] = target: Transcription factor Jun (Homo sapiens) (UniProt P05412); experiment: Inhibition of AP1 (unknown origin) expressed in LPS-stimulated mouse RAW264.7 cells at 12.5 to 50 uM pretreated for 1 hr followed by LPS-stimulation measured after 18 hrs by luciferase reporter gene assay; type: cell-based
Sequence of Transcription factor Jun (Homo sapiens) (P05412 whole entry): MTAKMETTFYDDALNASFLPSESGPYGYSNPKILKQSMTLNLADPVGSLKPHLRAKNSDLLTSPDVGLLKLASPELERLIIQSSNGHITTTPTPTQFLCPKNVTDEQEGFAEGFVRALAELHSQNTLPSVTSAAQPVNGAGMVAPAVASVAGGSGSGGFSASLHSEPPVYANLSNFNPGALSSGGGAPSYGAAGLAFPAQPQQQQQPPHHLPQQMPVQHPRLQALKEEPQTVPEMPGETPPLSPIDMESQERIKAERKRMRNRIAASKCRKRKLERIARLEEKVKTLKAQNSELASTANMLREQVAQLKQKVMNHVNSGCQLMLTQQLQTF

[15] = tested on: RAW264.7; experiment: Antiinflammatory activity in mouse RAW264.7 cells assessed as inhibition of LPS-stimulated IL1beta production in mouse RAW264.7 cells pretreated for 1 hr followed by LPS addition measured after 24 hrs by enzyme immunoassay; type: functional, cell-based
[16] = tested on: RAW264.7; experiment: Antiinflammatory activity in mouse RAW264.7 cells assessed as inhibition of LPS-induced nitric oxide production pretreated for 1 hr followed by LPS stimulation measured after 24 hrs by Griess assay; type: functional, cell-based
[17] = tested on: RAW264.7; experiment: Antiinflammatory activity in mouse RAW264.7 cells assessed as inhibition of LPS-stimulated mPGES1 expression at 12.5 to 50 uM pretreated for 1 hr followed by LPS-stimulation measured after 12 hrs by Western blot analysis; type: functional, cell-based
[18] = tested on: RAW264.7; experiment: Inhibition of LPS-induced c-FOS expression in mouse RAW264.7 cells at 50 uM pretreated for 1 hr followed by LPS-stimulation measured after 15 mins by Western blot analysis; type: functional, cell-based
[19] = tested on: RAW264.7; experiment: Antiinflammatory activity in mouse RAW264.7 cells assessed as inhibition of LPS-stimulated IL-6 mRNA expression at 50 uM measured up to 6 hrs by SYBR green dye based RT-PCR analysis; type: functional, cell-based
[20] = target: Tyrosine-protein kinase JAK1 (Mus musculus) (UniProt P52332); experiment: Inhibition of JAK1 in LPS-stimulated mouse RAW264.7 cells assessed as reduction in STAT1 phosphorylation at S727 residue pretreated for 1 hr followed by LPS-stimulation by Western blot analysis; type: cell-based
[21] = target: Tyrosine-protein kinase JAK1 (Mus musculus) (UniProt P52332); experiment: Inhibition of JAK1 in LPS-stimulated mouse RAW264.7 cells assessed as reduction in STAT1 phosphorylation at Y701 residue pretreated for 1 hr followed by LPS-stimulation by Western blot analysis; type: cell-based
[22] = target: Protein c-Fos (Mus musculus) (UniProt P01101); experiment: Inhibition of LPS-induced c-FOS phosphorylation in mouse RAW264.7 cells at 50 uM pretreated for 1 hr followed by LPS-stimulation measured after 15 mins by Western blot analysis; type: cell-based
Sequence of Protein c-Fos (Mus musculus) (P01101 whole entry): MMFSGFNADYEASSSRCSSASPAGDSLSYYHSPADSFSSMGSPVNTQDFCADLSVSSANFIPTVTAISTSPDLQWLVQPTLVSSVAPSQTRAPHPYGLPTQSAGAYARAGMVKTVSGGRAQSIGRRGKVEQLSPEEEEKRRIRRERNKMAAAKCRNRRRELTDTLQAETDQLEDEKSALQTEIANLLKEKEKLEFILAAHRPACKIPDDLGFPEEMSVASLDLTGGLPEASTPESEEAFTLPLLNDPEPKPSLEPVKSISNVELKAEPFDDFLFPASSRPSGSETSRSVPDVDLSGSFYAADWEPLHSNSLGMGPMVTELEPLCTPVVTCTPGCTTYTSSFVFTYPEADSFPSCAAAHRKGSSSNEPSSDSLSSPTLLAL

[23] = tested on: RAW264.7; experiment: Antiinflammatory activity in mouse RAW264.7 cells assessed as inhibition of LPS-stimulated mPGES1 mRNA expression at 50 uM measured up to 12 hrs by SYBR green dye based RT-PCR analysis; type: functional, cell-based
[24] = tested on: RAW264.7; experiment: Antiinflammatory activity in mouse RAW264.7 cells assessed as inhibition of LPS-stimulated COX2 mRNA expression at 50 uM measured up to 12 hrs by SYBR green dye based RT-PCR analysis; type: functional, cell-based
[25] = tested on: RAW264.7; experiment: Antiinflammatory activity in mouse RAW264.7 cells assessed as inhibition of LPS-stimulated IL1beta mRNA expression at 50 uM measured up to 6 hrs by SYBR green dye based RT-PCR analysis; type: functional, cell-based
[26] = tested on: RAW264.7; experiment: Antiinflammatory activity in mouse RAW264.7 cells assessed as inhibition of LPS-stimulated IL-6 production in mouse RAW264.7 cells at 50 uM pretreated for 1 hr followed by LPS addition measured after 24 hrs by enzyme immunoassay relative to control; type: functional
[27] = tested on: RAW264.7; experiment: Antiinflammatory activity in mouse RAW264.7 cells assessed as inhibition of LPS-stimulated iNOS mRNA expression at 50 uM measured up to 12 hrs by SYBR green dye based RT-PCR analysis; type: functional, cell-based
[28] = target: Transcription factor Jun (Mus musculus) (UniProt P05627); experiment: Inhibition of LPS-induced c-JUN phosphorylation in mouse RAW264.7 cells at 50 uM pretreated for 1 hr followed by LPS-stimulation measured up to 30 mins by Western blot analysis; type: cell-based
Sequence of Transcription factor Jun (Mus musculus) (P05627 whole entry): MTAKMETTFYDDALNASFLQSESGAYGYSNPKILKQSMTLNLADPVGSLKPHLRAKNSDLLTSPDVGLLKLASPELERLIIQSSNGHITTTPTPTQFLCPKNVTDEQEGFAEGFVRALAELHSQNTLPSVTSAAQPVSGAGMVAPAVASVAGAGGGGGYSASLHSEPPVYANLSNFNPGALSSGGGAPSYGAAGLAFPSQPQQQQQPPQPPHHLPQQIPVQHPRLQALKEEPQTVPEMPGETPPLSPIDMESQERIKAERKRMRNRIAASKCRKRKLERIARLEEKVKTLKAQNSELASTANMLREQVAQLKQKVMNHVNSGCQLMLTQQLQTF

[29] = tested on: RAW264.7; experiment: Antiinflammatory activity in mouse RAW264.7 cells assessed as inhibition of LPS-stimulated IL1beta production in mouse RAW264.7 cells at 50 uM pretreated for 1 hr followed by LPS addition measured after 24 hrs by enzyme immunoassay relative to control; type: functional

IC50 [1]: 89.8 µM | IC50 [4]: 135 µM
SMILES: O=C(/C=C/c1ccc(O)cc1)NCCc1c[nH]c2ccc(O[C@@H]3O[C@H](CO)[C@@H](O)[C@H](O)[C@H]3O)cc12
Activity [2]: Non-Toxic | Activity [3]: Non-Toxic

IC50 [1]: > 100 µM | IC50 [4]: > 200 µM
SMILES: COc1ccc(C[C@H]2COC(=O)[C@]2(O)Cc2ccc(O[C@@H]3O[C@H](CO)[C@@H](O)[C@H](O)[C@H]3O)c(OC)c2)cc1OC
Activity [2]: Non-Toxic | Activity [3]: Non-Toxic

IC50 [4]: 28.3 µM
SMILES: CC(=N)NCCCC[C@H](N)C(=O)O [L-NIL]

IC50 [1]: > 100 µM | IC50 [4]: > 200 µM
SMILES: COc1cc(C[C@@H](CO)[C@H](CO)Cc2ccc(O)c(OC)c2)ccc1O [(+)-SECOISOLARICIRESINOL]
Activity [2]: Non-Toxic | Activity [3]: Non-Toxic

IC50 [1]: 43.2 µM | IC50 [4]: 164 µM
SMILES: O=C(/C=C/c1ccc(O)cc1)NCCc1c[nH]c2ccc(O)cc12 [N-P-COUMAROYL SEROTONIN]
Activity [2]: Non-Toxic | Activity [3]: Non-Toxic

IC50 [1]: > 100 µM | IC50 [4]: > 200 µM
SMILES: CC(=O)OC[C@H]1O[C@@H](O[C@H](C)[C@H]2C[C@H](O)[C@H]3[C@@H]4CCC5=CC(=O)CC[C@]5(C)[C@H]4CC[C@@]32C)[C@H](O)[C@@H](O)[C@@H]1O[C@@H]1O[C@H](CO)[C@@H](O)[C@H](O)[C@H]1O
Activity [2]: Non-Toxic | Activity [3]: Non-Toxic

IC50 [1]: > 100 µM | IC50 [4]: > 200 µM
SMILES: O=C(/C=C/c1ccc(O)cc1)NCCc1c[nH]c2ccc(O)c(-c3c(O)ccc4[nH]cc(CCNC(=O)/C=C/c5ccc(O)cc5)c34)c12
Activity [2]: Non-Toxic | Activity [3]: Non-Toxic

IC50 [1]: 14.7 µM | inhibition [6]: Dose-dependent effect | inhibition [7]: Active | inhibition [14]: Active | inhibition [20]: Dose-dependent effect | inhibition [21]: Dose-dependent effect | inhibition [22]: Active | IC50 [4]: 123 µM | inhibition [28]: inactive
SMILES: COc1cc(/C=C/C(=O)NCCc2c[nH]c3ccc(O)cc23)ccc1O [N-FERULOYL SEROTONIN]
inhibition [5]: inactive | inhibition [1]: Dose-dependent effect | inhibition [8]: inactive | inhibition [9]: Active | inhibition [10]: inactive | inhibition [11]: Active | inhibition [12]: Active | inhibition [13]: Dose-dependent effect | Activity [2]: Non-Toxic | inhibition [15]: Dose-dependent effect | inhibition [16]: Dose-dependent effect | inhibition [17]: Active | Activity [3]: Non-Toxic | inhibition [18]: Active | inhibition [19]: Active | inhibition [23]: Active | inhibition [24]: Active | inhibition [25]: Active | inhibition at 50 µM [26]: 25.1% | inhibition [27]: Active | inhibition at 50 µM [29]: 52.2%

IC50 [1]: > 100 µM | IC50 [4]: > 200 µM
SMILES: COc1cc(/C=C/C(=O)NCCc2c[nH]c3ccc(O)c(-c4c(O)ccc5[nH]cc(CCNC(=O)/C=C/c6ccc(O)c(OC)c6)c45)c23)ccc1O
Activity [2]: Non-Toxic | Activity [3]: Non-Toxic

IC50 [1]: > 100 µM | IC50 [4]: > 200 µM
SMILES: COc1cc(/C=C/C(=O)NCCc2c[nH]c3ccc(O)c(-c4c(O)ccc5[nH]cc(CCNC(=O)/C=C/c6ccc(O)cc6)c45)c23)ccc1O
Activity [2]: Non-Toxic | Activity [3]: Non-Toxic

— ChEMBL document CHEMBL4177665, “Inhibitory effect of moschamine isolated from Carthamus tinctorius on LPS-induced inflammatory mediators via AP-1 and STAT1/3 inactivation in RAW 264.7 macrophages” (Bioorg Med Chem Lett, 2017)
